Assay results: patent publication US20230039395A1, “LSD AND […] EQUIVALENCE DETERMINATION” (Universitätsspital Basel, priority 2021, published 2023)

What was measured:
5-HT transporter (SERT) = 5-HT transporter (SERT) (Homo sapiens, UniProt P31645); settings: cited from earlier work
[1] = Spontaneously reported adverse events after treatment; format: in vivo, human; settings: for type and amount of adverse events, psilocybin versus LSD: in vivo; for flash back episodes: within 72 hours after administration, nine episodes in five subjects
Procedure: (§1) The subjects then underwent baseline measurements.
In addition to the adverse effects systematically assessed with the list of complaints, there were spontaneously reported adverse events after LSD or psilocybin administration as assessed in the evening of the treatment day or within 48 hours after treatment. These adverse after effects after psilocybin or LSD administration included headaches (four subjects after psilocybin and three after LSD), migraine attack (one subject after LSD), nosebleeds (one subject after psilocybin), low mood (two subjects after psilocybin and two subjects after LSD), nausea (two subjects after psilocybin and one subject after LSD), nightmares (one subject after psilocybin), restlessness (one subject after psilocybin and one subject after LSD), vivid dreams (one subject after LSD), insomnia (one subject after psilocybin), involuntary movement in lower extremities (one subject after LSD). Nine flash back episodes occurred in five subjects (one to 20 times within 72 hours after substance administration), five episodes occurred after LSD administration, four episodes occurred after psilocybin administration.

[2] = Endocrine effects: plasma cortisol and prolactin (PRL); format: in vivo, human; settings: 2.5 hours after administration
Procedure: as §1
Endocrine effects: Plasma concentrations of cortisol, prolactin (PRL), oxytocin, and brain-derived neurotrophic factor (BDNF) were determined as described elsewhere (Holze et al., 2021; Schmid et al., 2015). Cortisol and PRL were measured before and 2.5 hours after drug administration. BDNF was measured before and three times after drug administration.
The criterion for significance was p<0.05.

[3] = Dose equivalence of LSD and psilocybin extrapolated from acute effects; format: in vivo, human; settings: LSD 200 μg
[4] = 75 μg LSD base in saline i.v., previous studies; cited from earlier work
[5] = target: serotonin (5-HT)2A receptors (Homo sapiens, UniProt P28223); settings: cited from earlier work
Sequence of serotonin (5-HT)2A receptors (P28223 whole entry): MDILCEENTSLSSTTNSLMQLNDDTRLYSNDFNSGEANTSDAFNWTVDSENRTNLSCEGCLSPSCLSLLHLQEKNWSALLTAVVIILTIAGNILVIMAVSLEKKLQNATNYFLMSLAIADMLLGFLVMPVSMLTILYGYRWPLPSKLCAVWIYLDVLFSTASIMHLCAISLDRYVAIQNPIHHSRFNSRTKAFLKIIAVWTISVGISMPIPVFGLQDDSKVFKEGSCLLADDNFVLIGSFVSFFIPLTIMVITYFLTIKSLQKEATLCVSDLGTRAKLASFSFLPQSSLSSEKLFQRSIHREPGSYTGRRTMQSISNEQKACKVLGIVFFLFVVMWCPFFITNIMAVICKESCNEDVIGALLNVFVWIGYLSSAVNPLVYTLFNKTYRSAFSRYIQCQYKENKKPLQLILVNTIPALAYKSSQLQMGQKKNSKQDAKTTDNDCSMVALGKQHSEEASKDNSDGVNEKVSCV

D1-3 receptors = settings: cited from earlier work
[6] = after the 200 μg dose as two 100 μg LSD capsules (Steuer et al., 2017); cited from earlier work
[7] = four unused old LSD capsules, years after study completion; cited from earlier work
[8] = Acute adverse effects, 66-item List of Complaints; settings: for headache, number of subjects reporting: 0-12 hours, high dose; for headache, number of subjects reporting / balance disturbed, number of subjects / dry mouth, number of subjects reporting: 28 subjects
[9] = Adjective Mood Rating Scale (AMRS) in healthy subjects
[10] = Mystical Experience Questionnaire (MEQ43 and MEQ30) in healthy subjects; settings: LSD 200 μg; MEQ43 p=0.002, MEQ30 p=0.015
[11] = Plasma exposure of LSD and iso-LSD after LSD capsules in previous studies; settings: similar bioavailability assumed
[12] = Subjective drug effects on visual analog scales (VAS) in healthy subjects
[13] = 5 Dimensions of Altered States of Consciousness Scale (5D-ASC) in healthy subjects
[14] = Autonomic effects (blood pressure, heart rate, body temperature, pupil) in healthy subjects; settings: for rate pressure product: high dose of both substances
[15] = evening of treatment day or within 48 hours

Sequence of 5-HT transporter (SERT) (P31645 whole entry, species assumed): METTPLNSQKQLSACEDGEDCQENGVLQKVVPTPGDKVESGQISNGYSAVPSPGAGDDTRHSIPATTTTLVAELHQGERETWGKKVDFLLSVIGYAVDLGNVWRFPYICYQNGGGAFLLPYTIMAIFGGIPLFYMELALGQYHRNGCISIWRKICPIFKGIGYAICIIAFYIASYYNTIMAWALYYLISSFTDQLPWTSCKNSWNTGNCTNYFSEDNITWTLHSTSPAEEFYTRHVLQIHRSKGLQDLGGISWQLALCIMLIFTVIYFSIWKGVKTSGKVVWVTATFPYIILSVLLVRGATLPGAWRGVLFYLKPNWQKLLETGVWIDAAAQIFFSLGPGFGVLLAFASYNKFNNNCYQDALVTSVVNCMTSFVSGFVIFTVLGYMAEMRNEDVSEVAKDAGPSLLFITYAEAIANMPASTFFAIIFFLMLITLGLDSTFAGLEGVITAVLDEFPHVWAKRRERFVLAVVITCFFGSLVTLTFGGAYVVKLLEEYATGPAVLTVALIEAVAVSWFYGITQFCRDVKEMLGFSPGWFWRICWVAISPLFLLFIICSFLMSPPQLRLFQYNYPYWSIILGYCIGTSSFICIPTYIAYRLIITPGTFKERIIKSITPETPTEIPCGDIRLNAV

In the case of `CN(C)CCc1c[nH]c2cccc(O)c12` [Psilocin, psilocin], the “action on the 5-HT transporter (SERT)” value (5-HT transporter (SERT)) is given as “inhibits”.

In the case of `CCN(CC)C(=O)[C@@H]1C=C2c3cccc4[nH]cc(c34)C[C@H]2N(C)C1` [LSD, lysergic acid diethylamide], the “headaches, spontaneously reported” value [1, 15] is reported as “three”, the “involuntary movement in lower extremities, spontaneously reported” value [1, 15] is reported as “one” and the “low mood, spontaneously reported” value [1, 15] is reported as “two”. The “migraine attack, spontaneously reported” value [1, 15] was “one”, the “nausea, spontaneously reported” value [1, 15] was “one” and the “restlessness, spontaneously reported” value [1, 15] was “one”. The “vivid dreams, spontaneously reported” value [1, 15] was “one”, the “type and amount of adverse events, psilocybin versus LSD” value [1] was “comparable” and the flash back episodes [1] was “five”. For the same compound, the PRL plasma concentrations [2] was “significantly increased”, the cortisol plasma concentrations [2] was “significantly increased” and the “overall strength versus the 30 mg psilocybin dose” value [3] was “overall stronger”. The “clinical response to 75 μg intravenous LSD versus oral 100 μg dose” value [4] was “not significantly different”, the “binding to 5-HT2A receptors” value [5] was “bind” and the “action on D1-3 receptors” value (D1-3 receptors) was “stimulates”. The “plasma AUC24” value [6] was 21 ng·h/mL, the “remaining amount of LSD in capsules” value [7] was 22 ± 7 µg and the “headache, number of subjects reporting” value [8] was 13 subjects. For the same compound, the “balance disturbed, number of subjects” value [8] was 16 subjects, the “dry mouth, number of subjects reporting” value [8] was 15 subjects and the “frequency of acute adverse effects, LSD versus psilocybin” value ([8]; in vivo) was “equally frequent”. The “most frequent acute adverse effects” value ([8]; in vivo) was “fatigue, headache, lack of concentration, lack of energy, dullness, feeling week, loss of appetite, dry mouth, and impaired balance”, the “total number of acute complaints, 100 versus 200 μg LSD” value ([8]; in vivo) was “did not differ” and the “AMRS emotional excitation versus 15 mg or 30 mg psilocybin” value ([9]; LSD 100 and 200 μg) was “greater”. For the same compound, the “AMRS extraversion ratings versus placebo” value ([9]; all doses) was “decrease”, the “AMRS inactivation ratings versus placebo” value ([9]; all doses) was “significantly and similarly increased” and the “AMRS introversion ratings versus placebo” value ([9]; all doses) was “increased”. The AMRS self-rated anxiety ([9]; both doses of LSD (100 and 200 μg)) was “slightly but significantly increased”, the “MEQ ineffability ratings versus 30 mg psilocybin” value [10] was “significantly greater” and the “AUC∞ as percent of the value expected from confirmed 96 μg LSD doses” value ([11]; 100 μg dose) was 61%. The “AUC∞ as percent of the value expected from confirmed 96 μg LSD doses” value ([11]; 200 μg dose) was 76%, the “dose-response curve of subjective effects” value ([12]; 15-30 mg psilocybin range compared to 100-200 μg LSD range) was “plateau effect” and the “overall effects and positive drug effects, 200 μg versus 100 μg LSD” value ([12]; LSD 100 and 200 μg oral) was “comparable positive drug effects”. The “bad drug effects, 200 μg versus 100 μg LSD” value ([12]; human, in vivo) was “more”, the “ego dissolution (VAS), 200 μg versus 100 μg LSD” value ([12]; p=0.014) was “more and greater” and the “anxiety (VAS), 200 μg versus 100 μg LSD” value ([12]; p=0.054) was “more and near-significantly greater”. For the same compound, the “alterations of the mind in the 5D-ASC scale” value ([13]; human, in vivo) was “marked alterations of the mind”, the “5D-ASC AED (anxious ego dissolution), 200 μg versus 100 μg LSD” value ([13]; p=0.02) was “greater” and the “5D-ASC anxiety, 200 μg versus 100 μg LSD” value ([13]; p=0.03) was “greater”. For the same compound, the “5D-ASC impairments of control and cognition, 200 μg versus 100 μg LSD” value ([13]; p=0.04) was “greater”, the “increase in heart rate versus psilocybin 30 mg” value ([14]; LSD 200 μg, p=0.002) was “significantly more” and the rate pressure product [14] was “similarly increased”.

In the case of `CCN(CC)C(=O)[C@H]1C=C2c3cccc4[nH]cc(c34)C[C@H]2N(C)C1` [iso-LSD], the “plasma AUC24” value [6] is listed as 9.2 ng·h/mL.

With `CN(C)CCc1c[nH]c2cccc(OP(=O)(O)O)c12` [psilocybin] the “headaches, spontaneously reported” value [1, 15] was “four”, the “insomnia, spontaneously reported” value [1, 15] was “one” and the “low mood, spontaneously reported” value [1, 15] was “two”. The “nausea, spontaneously reported” value [1, 15] was “two”, the “nightmares, spontaneously reported” value [1, 15] was “one” and the “nosebleeds, spontaneously reported” value [1, 15] was “one”. For the same compound, the “restlessness, spontaneously reported” value [1, 15] was “one”, the “type and amount of adverse events, psilocybin versus LSD” value [1] was “comparable” and the flash back episodes [1] was “four”. The “headache, number of subjects reporting” value [8] was 18 subjects, the “balance disturbed, number of subjects” value [8] was 16 subjects and the “dry mouth, number of subjects reporting” value [8] was 9 subjects. The “frequency of acute adverse effects, LSD versus psilocybin” value ([8]; in vivo) was “equally frequent”, the “most frequent acute adverse effects” value ([8]; in vivo) was “fatigue, headache, lack of concentration, lack of energy, dullness, feeling week, loss of appetite, dry mouth, and impaired balance” and the “acute adverse effects versus LSD 100 μg” value ([8]; psilocybin 15 mg, p<0.01) was “fewer”. For the same compound, the “acute adverse effects versus psilocybin 30 mg” value ([8]; psilocybin 15 mg, p<0.1) was “trend toward fewer”, the rate pressure product [14] was “similarly increased” and the “increase in diastolic blood pressure versus LSD 200 μg” value ([14]; psilocybin 30 mg, p<0.001) was “more”. The “increase in systolic blood pressure versus LSD 200 μg” value ([14]; psilocybin 30 mg, p=0.04) was “more”.
